This note sets out measurements from patent US20020147136A1, “Compounds for targeting endothelial cells, compositions containing the same and methods for their use” (priority 2000, published 2002).

Residues, ends and D or L forms follow the SMILES beside them.

Assay [1] has as its system Rabbit aortic endothelial cells (RAEC). In words: Microbubble binding to RAEC in static culture. The class given is cell-based. The note with it: free TKPPR 100 μM; 5% bubbles (Composition I of Example 5). How it is done:
Rabbit aortic endothelial cells (RAEC) from Biowhittaker (Cat No. AC-7018, lot 9CC086 from a custom isolation) were obtained frozen on dry ice and stored in liquid nitrogen until thawing. RAEC were cultured and used in bubble binding assays exactly as HAEC (described above), except that EGM2-MV medium (Biowhittaker Cat No. CC-3202) was substituted for EGM-MV.

Another assay deals with KDR/FIk-1 receptor. Briefly: Inhibition of phospho-tyrosine activation of KDR by VEGF in HUVEC. The class given is cell-based, human. The note with it: 200 μM. How it is done:
The ability of various compositions comprising TKPPR monomers or multimers to inhibit phospho-tyrosine activation of the KDR/FIk-1 receptor by VEGF was evaluated using HUVECs. Nine 100 mm confluent dishes of cultured HUVEC cells were serum starved overnight in basal (EBM) medium without any additives. The next morning the plates were divided into three groups as follows:
1. 3 Plates had their medium changed to fresh EBM medium with no additions.
After 5 minutes at 37° C. the dishes were all drained and quickly washed 3 times with cold D-PBS with Ca and Mg (Life Technologies). Lysates were prepared from each treatment group using Triton X-100 lysis buffer (20 mM Tris pH 8.0, 137 mM NaCl, 10% glycerol, 1% Triton X-100, 2 mM EDTA Supplemented with 1 mM PMSF, […] Leupeptin and Aprotinin, 1 mM sodium orthovanadate, 50 mM sodium pyrophosphate, 100 mM sodium fluoride.) The pooled lysates from each group were precleared using Protein A beads from Sigma then incubated overnight with anti-KDR antibody (Sc-504 from Santa Cruz Biotech). The immune complexes were brought down by adding fresh Protein A beads. […] The intensity of phosphorylated (active) KDR for each treatment group was determined from the PY-20 blot then normalized to the total amount of KDR present as determined by re-probing with anti-KDR (sc-315).

In another assay the target is Neuropilin-1/Fc. In words: Fluorescence polarization binding to NP-1/Fc. The conditions noted are these: unlabeled competitor; read-out: IC50 for competing BRU-326 binding to NP-1. As to the method: The ability of various compositions comprising TKPPR monomers or multimers to bind to NP-1/Fc and KDR-Fc was evaluated using FP. The binding studies of various Oregon Green (OG)-labeled compounds comprising TKPPR monomers or multimers and related compounds with Neuropilin-1/Fc, and KDR-Fc (both from R&D Systems), were carried out at 37° C. in D-PBS buffer (pH 7.4). FP values (mP) for each substrate was measured by titrating the ligand (5-20 nM) with receptor protein using a Jolley Research and Consulting FPM-1 fluorescence Polarization analyzer. In each of these experiments the observed polarization values were plotted against receptor concentration. The mP values for 100% binding of tracer labeled ligand to receptor protein was calculated using the software provided by the vendor.
For orientation: In fluorescence polarisation assays a small probe gives low polarisation when free and higher when bound to something large.

Another assay concerns HAEC. In words: TKPPR-bead binding to endothelial cells under flow. The class given is cell-based, human. The conditions noted are these: flow 1.91 mL/min, 37° C. As to the method: Circular 40 mm diameter glass coverslips (Bioptechs, Cat No. 40-1313-0319) were first derivative by dipping in 3-aminopropyltriethoxysilane (Pierce, Cat No. 80370ZZ), 20% in acetone (HPLC grade, Sigma Aldrich Cat No. 27,072-5), rinsed in acetone, and air-dried. After autoclaving, the derivatized coverslips were placed into 60 mm round, sterile culture dishes, one coverslip per dish. Five mL of a Collagen I solution (Becton Dickinson, Cat No. 40236), 41.6 μg/mL in 20 mM acetic acid (adjusted to pH 6.7 with NaOH), was added to each coverslip-containing dish. After 15 min, 0.25 mL of 11.5 mg/mL bis(sulfosuccinimidyl) suberate (Pierce, Cat No. 21580ZZ) was added to each dish and mixed in by swirling. After a 105-minute incubation, the dishes were drained and 5 mL of sterile TBS (20 mM Tris-HCl, pH 7.5, 140 mM NaCl) was added to each dish. […]
Coverslips containing confluent HAEC were mounted into a Bioptechs FCS2 parallel plate flow cell mounted on an Olympus IMT-2 inverted microscope. […] Wall shear stress T, in dynes/cm^2, was calculated using the equation (Lawrence et al., Blood 75:227-237, 1990): [formula]
Bead binding of equal numbers of red fluorescent beads conjugated with TKPPR and green fluorescent beads conjugated with glycine was monitored after increasing lengths of perfusion and variable lengths of subsequent washing with the same solution lacking microspheres.

As to `CC(O)C(N)C(=O)NC(CCCCN)C(=O)N1CCCC1C(=O)N1CCCC1C(=O)NC(CCCNC(=N)N)C(=O)O` [TKPPR, L-Arginine, L-threonyl-L-lysyl-L-prolyl-L-prolyl] (H-TKPPR-OH; configuration not given here), the RAEC bubbles bound in assay [1] amounted to 21. Besides, the “effect on the ability of VEGF to activate KDR” value with KDR/FIk-1 receptor is “no effect”. In addition, the 50% inhibitory concentration (IC50) at Neuropilin-1/Fc stood at 80 µM. In addition, the “Beads bound at 1.53 dynes/cm^2” value with HAEC came out at 86.

In general, IC50 refers to the concentration that inhibits the measured activity by half.
